Data published in publication PMC8227119, “Urinary Elimination of Ecdysterone and Its Metabolites Following a Single-Dose Administration in Humans” (Metabolites, 2021).
“And” between values parts separate entries of the source, which are not always exact repeats. Identical values can stand only once. Like-named read-outs stand apart in the source and are kept apart here.

Columns and labels:
[1] = Urinary excretion and pharmacokinetics after a single oral dose of 50 mg of pure ecdysterone (LC-MS/MS of urine); format: in vivo, human; conditions: for Subjects in whose post-administration urine the analyte was detected: 12 subjects; for Cmax / half-life / Tmax: both sexes; for Cmax / half-life: human, po, 50 mg; for Tmax: read-out: Tmax (time to maximum urinary concentration); for Cumulative urinary excretion percentage relative to dose, mean / Cumulative urinary excretion percentage relative to dose, range over subjects: percent of the 50 mg dose; for Cumulative urinary excretion percentage relative to dose, mean: mean value; for Cumulative Du (cumulative amount excreted in urine): mean ± SD of 12 subjects (14-deoxy-poststerone n = 10); for Difference of cumulative urinary excretion percentage between male and female (T-test): p ≤ 0.05, 5 males, 7 females; for Kinetics of urinary elimination: log-linear rate of excretion versus middle-point time
Protocol: The study was approved by the ethical committee of the German Sport University Cologne, and was carried out following the regulations of the Helsinki declaration. Twelve healthy subjects (7 females and 5 males) with a mean age (standard deviation [SD]) of 26 (3.1) y, weight of 74 (12.0) kg, and height of 174 (8.3) cm participated in the study. A single-dose of 50 mg of pure ecdysterone dissolved in 50 cl of alcoholic solution was administered to the subjects. All doses were administered at 9.00 a.m. in the morning. The urine samples were collected one day before (blank samples) and five days after the administration of ecdysterone. Sampling time (h) and urine volume (mL) were recorded. Aliquots of urine samples were stored frozen at −18 °C, until analysis.
Urine samples (200 µL) spiked with 10 µL of the ISTD ponasterone (working solution 10 µg/mL) and diluted to 1 mL with methanol:water (10:90, v/v). The tubes were vortex-mixed and then centrifuged at 9677 RCF for 8 min.
The analysis of ecdysterone and its metabolite in calibration and urine samples was performed by LC–MS/MS on an Agilent 1200 Infinity series, coupled to an Ultivo triple quadrupole tandem MS system, utilizing a Jet Stream electrospray ionization (ESI) source and an Ion Funnel (Agilent Technologies GmbH, Waldronn, Germany).
In this study, the excretion profile, the cumulative amount excreted in urine, and the half-life of ecdysterone and its metabolites, after a single-dose administration of 50 mg of pure ecdysterone were evaluated according to [45].
To obtain the excretion rates, Equation (1) was applied:(1) Erate,i=Ci x Vi/ (ti−ti−1)
For each urine sample, the calculated concentration (Ci, ng/mL) of ecdysterone, 14-deoxy-ecdysterone, and 14-deoxy-poststerone was adjusted as a function of the dilution factor applied (1:5) and of the volume of urine collected (Vi, mL), obtaining the corresponding amount of drug in urine (expressed in ng), which was divided by the interval between the time values of the sampling and the previous sampling (ti − ti−1).
The excretion profile curves of ecdysterone and its metabolites for each subject were then obtained by plotting the calculated rate of excretion values (ng/h) versus time (middle-point of sample collection, hours) or simply the calculated concentrations (ng/mL) versus time (sampling time, hours). The first collected interval started at 0 h after the oral administration of ecdysterone at 9 a.m.
For each sample, the amount of drug excreted in urine was calculated and added to the amount of drug recovered in the previous urine sample to obtain the cumulative urinary drug excretion, which was plotted in a graph versus the sampling time (hours).
The half-life using the elimination rate constant (k) was calculated by applying Equation (2):(2) t1/2=ln(2)/k
Two different methods were used to calculate the elimination rate constant (k). In the rate of excretion method, k was obtained from the slope of the elimination phase of the ln-transformed excretion curve (Figure 6).
In the sigma minus method, k was obtained from the slope of the elimination phase of the ln-transformed remaining drug to be excreted.

[2] = Stability of analytes in spiked urine QC samples (bench-top, long term, freeze-thaw); format: in vitro ADME, human; conditions: vs t = 0, mean n = 3
Protocol: The stability of ecdysterone and 14-deoxy-ecdysterone in urine was determined in triplicates, using the LQC and HQC samples, which were analyzed immediately and again after storage, as reported in Table 4. Freshly prepared QC samples (at t = 0) were used as baseline to assess the stability.
To evaluate the bench-top stability, LQC and HQC samples were left at room temperature for 4, 8, and 24 h, before analysis. Freeze and thaw stability was evaluated after three cycles for LQC and HQC. Long-term stability was evaluated analyzing the LQC and HQC samples, after storing them at −20 °C for two weeks. The results of the stability tests applied were calculated using the peak area ratio of the analytes to the ISTD, which were compared to the baseline (t = 0). Comparing the mean of the ratios after a specific storage condition to the mean of the ratio at t = 0. The results obtained were all within the ±15%.

[3] = single oral dose 50 mg ecdysterone
[4] = urine, human urine, single oral dose 50 mg ecdysterone, mean ± SD of 12 subjects (14-deoxy-poststerone n = 5), read-out: Cmax (maximum urinary concentration)
[5] = urine, human urine, single oral dose 50 mg ecdysterone, mean ± SD of 12 subjects (14-deoxy-poststerone n = 5), read-out: Half Life, Rate of Excretion method (converted)
[6] = urine, human urine, single oral dose 50 mg ecdysterone, mean ± SD of 12 subjects (14-deoxy-poststerone n = 5), read-out: Half Life, Sigma-Minus method (converted)
[7] = urine, human urine, single oral dose 50 mg ecdysterone, range over subjects, read-out: Maximum urinary concentration (Cmax), range over subjects
[8] = human urine, single oral dose 50 mg ecdysterone, mean ± SD of 12 subjects (14-deoxy-poststerone n = 5)
[9] = human urine, range over subjects
[10] = human urine, single oral dose 50 mg ecdysterone
[11] = human urine, single oral dose 50 mg ecdysterone, range over subjects
[12] = HQC, bench-top room temperature 4 h
[13] = HQC, bench-top room temperature 8 h
[14] = HQC, bench-top room temperature 24 h
[15] = HQC, long term 2 weeks at −20 °C
[16] = LQC, bench-top room temperature 4 h
[17] = LQC, bench-top room temperature 8 h
[18] = LQC, bench-top room temperature 24 h
[19] = LQC, long term 2 weeks at −20 °C

CC(=O)[C@H]1CC[C@H]2C3=CC(=O)[C@@H]4C[C@@H](O)[C@@H](O)C[C@]4(C)[C@H]3CC[C@]12C [14-deoxy-poststerone, alpha-14-deoxy-poststerone]
Subjects in whose post-administration urine the analyte was detected [1, 3]: 10 out of 12
Cmax [1, 4]: 800 ± 700 ng/mL
half-life [1, 5]: 9.7 ± 9.5 h
half-life [1, 6]: 4.4 ± 1 h
Cmax [1, 7]: 100 to 1500 ng/mL
Tmax [1, 8]: 30.1 ± 7.2 h
Cumulative urinary excretion percentage relative to dose, mean ([1]; human urine): 1.5%
Cumulative urinary excretion percentage relative to dose, range over subjects [1, 9]: 0.01–4.9%
Duration of detectability in urine [1, 10]: about 4 days
First detection in urine after administration (start of detection window) [1, 10]: 8.50 h
Remained detectable in urine until (end of detection window) [1, 10]: 97 h
ERmax (maximum urinary rate of excretion) [1, 8]: 0.1 ± 0.1 mg/h
Midpoint Timemax (maximum urinary middle-point time) [1, 8]: 27.8 ± 3.7 h
Cumulative Du (cumulative amount excreted in urine) [1, 10]: 0.7 ± 1.1 mg
Time of the urine with maximum concentration, range over subjects [1, 11]: 23.3 to 41.3 h
Difference of cumulative urinary excretion percentage between male and female (T-test) [1]: significant difference

CC(C)(O)CC[C@@H](O)[C@](C)(O)[C@H]1CC[C@@]2(O)C3=CC(=O)[C@@H]4C[C@@H](O)[C@@H](O)C[C@]4(C)[C@H]3CC[C@]12C [Ecdysterone, 2β,3β,14α,20β,22R,25-hexahydroxy-5β-cholest-7-en-6-one]
Subjects in whose post-administration urine the analyte was detected [1, 3]: all subjects
Cmax ([1]; in vivo, human urine, single oral dose 50 mg ecdysterone, mean ± SD of 12 subjects (14-deoxy-poststerone n = 5), read-out: Cmax (maximum urinary concentration)): 12100 ± 9200 ng/mL
half-life ([1]; in vivo, human urine, single oral dose 50 mg ecdysterone, mean ± SD of 12 subjects (14-deoxy-poststerone n = 5), read-out: Half Life, Rate of Excretion method (converted)): 3.4 ± 1 h
half-life ([1]; in vivo, human urine, single oral dose 50 mg ecdysterone, mean ± SD of 12 subjects (14-deoxy-poststerone n = 5), read-out: Half Life, Sigma-Minus method (converted)): 3 ± 1 h
Cmax ([1]; in vivo, human urine, single oral dose 50 mg ecdysterone, range over subjects, read-out: Maximum urinary concentration (Cmax), range over subjects): 4400 to 30000 ng/mL
half-life ([1]; in vivo, human urine, single oral dose 50 mg ecdysterone, read-out: Urinary half-life (approximate) (converted)): ~3 h
Tmax ([1]; in vivo, human urine, single oral dose 50 mg ecdysterone, mean ± SD of 12 subjects (14-deoxy-poststerone n = 5)): 4.6 ± 1.8 h
Cumulative urinary excretion percentage relative to dose, mean ([1]; human urine): 18%
Cumulative urinary excretion percentage relative to dose, range over subjects [1, 9]: 2.8–47.2%
Time at which cumulative urinary excretion reaches a plateau ([1]; human urine, post-dosage): 12 h
Duration of detectability in urine [1, 10]: more than 2 days
First detection in urine after administration [1, 10]: 45 min
Remained detectable in urine until (end of detection window) [1, 10]: 58 h
Urinary half-life (approximate) [1, 10]: three
ERmax (maximum urinary rate of excretion) [1, 8]: 1.7 ± 1.4 mg/h
Midpoint Timemax (maximum urinary middle-point time) [1, 8]: 2.1 ± 1.3 h
Cumulative Du (cumulative amount excreted in urine) [1, 10]: 8.8 ± 6.6 mg
Maximum excretion rate, range over subjects [1, 11]: 0.1 to 4.8 mg/h
Time of the urine with maximum concentration, range over subjects [1, 11]: 2.8 to 8.5 h
Time of the urine with maximum excretion rate, range over subjects [1, 11]: 0.4 to 4.4 h
Kinetics of urinary elimination [1]: first-order kinetics
Kinetics of urinary elimination ([1]; listed as ecdysterone): first-order
Difference of cumulative urinary excretion percentage between male and female (T-test) [1]: No significant difference
Stability% [2, 12]: 101%
Stability% [2, 13]: 98%
Stability% [2, 14]: 100%
Stability% ([2]; HQC, freeze-thaw 3 cycles): 103%
Stability% [2, 15]: 87%
Stability% [2, 16]: 100%
Stability% [2, 17]: 104%
Stability% [2, 18]: 100%
Stability% ([2]; LQC, freeze-thaw 3 cycles): 111%
Stability% [2, 19]: 94%

CC(C)(O)CC[C@@H](O)[C@](C)(O)[C@H]1CC[C@H]2C3=CC(=O)[C@@H]4C[C@@H](O)[C@@H](O)C[C@]4(C)[C@H]3CC[C@]12C [14-deoxy-ecdysterone, Alpha-14-deoxy-ecdysterone]
Subjects in whose post-administration urine the analyte was detected [1, 3]: all 12 subjects
Cmax [1, 4]: 1400 ± 1600 ng/mL
half-life [1, 5]: 3.1 ± 1.3 h
half-life [1, 6]: 2.2 ± 0.9 h
Cmax [1, 7]: 100 to 6000 ng/mL
half-life ([1]; urine, human urine, single oral dose 50 mg ecdysterone, read-out: Urinary half-life (approximate) (converted)): ~3 h
Tmax [1, 8]: 19.7 ± 8.9 h
Cumulative urinary excretion percentage relative to dose, mean ([1]; human urine): 2.3%
Cumulative urinary excretion percentage relative to dose, range over subjects [1, 9]: 0.4–6.1%
Duration of detectability in urine [1, 10]: about 3 days
First detection in urine after administration (start of detection window) [1, 10]: 2.95 h
Remained detectable in urine until (end of detection window) [1, 10]: 75 h
Urinary half-life (approximate) [1, 10]: three
ERmax (maximum urinary rate of excretion) [1, 8]: 0.1 ± 0.1 mg/h
Midpoint Timemax (maximum urinary middle-point time) [1, 8]: 17.5 ± 7.0 h
Cumulative Du (cumulative amount excreted in urine) [1, 10]: 1.1 ± 0.9 mg
Maximum excretion rate, range over subjects [1, 11]: 0.02 to 0.24 mg/h
Time of the urine with maximum concentration, range over subjects [1, 11]: 8.5 to 39.5 h and 8.5 to 39.50 h
Time of the urine with maximum excretion rate, range over subjects [1, 11]: 10.1 to 29.5 h
Time at which cumulative urinary excretion reaches a plateau ([1]; in 58.3% of subjects): 25 to 40 h
Time at which cumulative urinary excretion reaches a plateau ([1]; in the remaining 16.6% of subjects): 40 to 62 h
Kinetics of urinary elimination [1]: first-order kinetics
Difference of cumulative urinary excretion percentage between male and female (T-test) [1]: No significant difference
Stability% [2, 12]: 101%
Stability% [2, 13]: 100%
Stability% [2, 14]: 101%
Stability% ([2]; HQC, freeze-thaw 3 cycles): 103%
Stability% [2, 15]: 87%
Stability% [2, 16]: 103%
Stability% [2, 17]: 101%
Stability% [2, 18]: 97%
Stability% ([2]; LQC, freeze-thaw 3 cycles): 110%
Stability% [2, 19]: 91%
